# Assay results reported in patent publication US7887822B2, “Peptides for stimulating an immune response against melanoma” (Health Research, Inc., priority 2005, dated 2011).
# Where no end group is shown, it is not given here.
# Tests used:
# [1] = Solubility of peptide, as noted for the peptide binding assays; assay type: physicochemical
# Protocol: Peptide PMK2-23H3, which was based on the H3 loop of anti-id mAb MK2-23 encompassing the HMW-MAA-homologous amino acid sequence (FIG. 1) was analyzed for reactivity with the HMW-MAA-specific idiotypic mAb 763.74. […] The peptide SVEYYGSSLMQ (designated as PMK2-23L1), which was derived from the L1 loop of anti-id mAb MK2-23 encompassing the described HMW-MAA-homologous a.a. sequence, was also synthesized.
# [2] = tested on: mAb 763.74; test: Inhibition by peptides of binding of biotinylated mAb 763.74 to HMW-MAA-bearing Colo38 melanoma cells; settings: for Inhibition of binding of mAb 763.74 to HMW-MAA-bearing melanoma cells: Colo38 cells, escalating peptide concentrations, FIG. 3; for IC50 for inhibition of mAb 763.74 binding: biotinylated mAb 763.74 incubated with peptide at 4° C. overnight, then Colo38 cells 1 h at 4° C., read-out: Dissociation constant (Kd), molar concentration of the peptide required to cause a 50% inhibition of binding of biotinylated mAb 763.74 to Colo38 cells
# Protocol: FIG. 3 is a graphical depiction of dose-dependent inhibition by anti-id mAb MK2-23H3-derived peptide PMK2-23H3 of binding of mAb 763.74 to HMW-MAA-bearing Colo38 melanoma cells. Peptides PHMW.D2.7 (HMW-MAA-derived), PMK2-23H3 (anti-id mAb MK2-23H3-derived), and an irrelevant control peptide Pb2m (β2-microglobulin-derived) at increasing concentrations were incubated with biotinylated mAb 763.74 (0.5 μg/ml) and assayed as described in Example 2. Results of one of three representative experiments are shown.
# PMK2-23H3, PMK2-23L1, and PHMW-MAA.D2.7 were synthesized by N.C. Wang, Hospital for Sick Children, Toronto, ON, Canada. A synthetic peptide derived from β2-microglobulin (Pb2m, KNGERIEKVEHS SEQ ID NO:4), used as a negative control, was purchased from University of Georgia Molecular Genetics Instrumentation Facility (Athens, Ga.). mAb 763.74 was purified from ascitic fluid by sequential ammonium sulphate and caprylic acid precipitation (Temponi, et al. (1989) Hybridoma. 8, 85-95). The purity and activity of mAb preparations were assessed by SDS-PAGE and by testing with the corresponding antigen in a binding assay, respectively. Biotinylation was performed using NHS-LC-biotin (Pierce, Rockford, Ill.) according to the manufacturer's instructions.)
# Escalating concentrations of peptides were incubated with biotinylated mAb 763.74 ([…]) at 4° C. overnight in U-bottom 96-well plates. The mixture was then incubated with HMW-MAA-bearing melanoma cells Colo38 (10^5/well) for 1 h at 4° C. After three washes with 1% bovine serum albumin in phosphate buffered saline, an optimal amount of horseradish peroxidase-conjugated streptavidin was added. Reactions were then developed and visualized with the TMB substrate system (KPL, Gaithersburg, Md.). Reactions were reported as optical density (O.D.) measured with an ELISA reader. Percent inhibition was calculated by the formula: 100%×(O.D.irrelevant peptide−O.D.test peptide)/O.D.irrelevant peptide. Dissociation constant (Kd) was calculated as the molar concentration of the peptide required to cause a 50% inhibition of binding of biotinylated mAb 763.74 to HMW-MAA-bearing melanoma cells Colo38 (Temponi, et al. (1992) Cancer Res. 52, 2497-2503).
# [3] = tested on: peptides PMK2-23H3, PHMW.D2.7 and anti-id mAb MK2-23; test: Immunogenicity in BALB/c mice: reactivity of sera in peptide binding ELISA; assay type: in vivo; settings: peptide conjugated to KLH with Freund adjuvant; for Reactivity of sera from immunized mice with HMW-MAA-derived peptide PHMW.D2.7 / Reactivity of sera from immunized mice with peptide PMK2-23H3: s.c. day 0, 21, 42, sera day 7 and 28, ELISA
# Protocol: (§1) FIGS. 4A and 4B are graphical depictions of the immunogenicity of peptide PMK2-23H3 in BALB/c mice. Sera harvested before immunization (circle) and on days 7 (square) and 28 (triangle) after immunization from BALB/c mice immunized with anti-id mAb-derived peptide PMK2-23H3 were tested for their reactivity in ELISA with the immunizing peptide (closed symbols, left panel of FIG. 4A) and with HMW-MAA-derived peptide PHMW.D2.7 (open symbols, right panel of FIG. 4A). Sera harvested before immunization (circles) and on day 28 (triangles) were tested in ELISA (left panel in FIG. 4B) with HMW-MAA-transfected M14#5 cells (closed symbols) and with their mock-transfected counterparts (open symbols, left panel in FIG. 4B). Sera harvested on day 28 were tested by FACS analysis (right panel in FIG. 4B, open profiles) with HMW-MAA-transfected M14#5 cells (M14#5/HMW) and with their mock-transfected counterparts (M14#5/neo). Preimmune sera (filled profile) were used as controls.
# (§2) Immunizations were given subcutaneously to 8-week-old female BALB/c mice (obtained from Taconic Farms, Germantown, N.Y.) (5 per group) on day 0, 21, and 42. Sera were harvested before immunization and on day 7 and 28. They were tested for reactivity with the immunizing peptide coated on 96-well plates (Temponi, et al. (1989) Hybridoma. 8, 85-95) and with HMW-MAA-bearing melanoma cells in ELISA and fluorescence-activated cell sorting (FACS) analysis using conventional techniques as previously described (Chen, et al. (1991) J. Immunol. 147, 1082-1090).
# [4] = tested on: HMW-MAA-transfected M14 melanoma cells; test: Immunogenicity in BALB/c mice: reactivity of sera with HMW-MAA-transfected and mock-transfected M14 melanoma cells in ELISA and FACS; assay type: in vivo; settings: sera day 28; ELISA and FACS analysis
# Protocol: as §1, with “Sera harvested on day 28 were tested by FACS analysis (right panel in FIG. 4B, open profiles) with HMW-MAA-transfected M14#5 cells (M14#5/HMW) and with their mock-transfected counterparts (M14#5/neo). Preimmune sera (filled profile) were used as controls.” left out
# as §2, with “Sera were harvested before immunization and on day 7 and 28.” left out
Solubility [1],IC50 for inhibition of mAb 763.74 binding [2] [nM],Sequence,Inhibition of binding of mAb 763.74 to HMW-MAA-bearing melanoma cells [2],Reactivity of sera from immunized mice with HMW-MAA-derived peptide PHMW.D2.7 [3],Reactivity of sera from immunized mice with peptide PMK2-23H3 [3],Reactivity of sera from immunized mice with HMW-MAA-transfected M14 melanoma cells (M14.HMW-MAA) [4],Reactivity of sera from immunized mice with mock-transfected M14 cells (M14.neo) [4],"Reactivity of sera from immunized mice with anti-id mAb MK2-23 ([3]; s.c., peptide binding assay)"
low solubility,,"SVEYYGSSLMQ [PMK2-23L1, SVEYYGSSLMQ]",,,,,,
,,"KNGERIEKVEHS (human; Beta 2-microglobulin peptide) [Pb2m, reference compound]",no detectable effect,no detectable reactivity,no detectable reactivity,,,
,871,"ARSNYVGYHVRWYFD [PMK2-23H3, identical to a portion of the H3 loop of anti-id mAb MK2-23]",inhibits the binding,reacted,reacted,reacted,did not react,reacted
,900,"IRSGDEVHYHVTAGPRW [PHMW-MAA.D2.7, IRSGDEVHYHV TAGPRW, identical to a region of HMW-MAA with partial homology to the H3 loop of MK2-23]",,,,,,
